From PubChem BioAssay AID2060899 (Molecular Pharmacology Branch, DTP, NCI, 2025)

Tested on: 565726-208-R1-J5-PDC complex spheroids, growth inhibition
Experiment: Anticancer human tumor 565726-208-R1-J5-PDC patient-derived pancreatic adenocarcinoma cell line growth inhibition [RAS]
Conditions: for IC50: curve of first compound; for viability, T/C: stronger effect = lower value
Description: RAS pathway inhibitors in Combinations in Complex Spheroids
A high-throughput screen of multi-cell type tumor spheroids was designed to identify active combinations of RAS pathway inhibitors and targeted small molecules. Complex spheroids include a stromal component modeled by human endothelial cells (HUVEC) and fibroblasts modeled by human mesenchymal stem cells (MSCs). The concentration ranges selected for each drug and investigational agent were based upon clinically achievable concentrations if the clinical Cmax of the agent was known.
Compounds. The drugs and investigational agents: abemaciclib (NSC768073), cobimetinib (NSC768068), divarasib (GDC6063, NSC841802), docetaxel (NSC628503), GDC-1971 (RLY-1971, NSC841576), gemcitabine (NSC613327), inavolisib (NSC800729), ipatasertib (NSC767898), KB-0742 (NSC834161), MRTX-1133 (NSC836407), osimertinib (NSC779217), RMC-4630 (NSC839698), RMC-6236 (NSC851965), RMC-6291 (NSC852671), Ro-3306 (NSC812927), sapanisertib (NSC764658), SN-38 (NSC673596), staurosporine (NSC755774), SY5609 (NSC837396), and tovorafenib (DAY101, NSC766906), were obtained from the National Cancer Institute (NCI) Developmental Therapeutics Program Chemical Repository. The FDA-approved anticancer drug set is available from the NCI Developmental Therapeutics Program. […] The stock solutions were prepared in dimethyl sulfoxide (DMSO, Sigma-Aldrich, St. Louis, MO, cat. D2650) at 800-fold the tested concentration and stored at -70 degrees C prior to their use. All drugs and investigational agents were tested over a range starting from a high concentration at or near the clinical Cmax and decreasing in half-log increments. If the clinical Cmax for an agent had not been determined, the highest concentration tested was 10 microM.
Cell Culture. All cells were maintained in an incubator at 37 degrees C and 5% CO2 with 95% humidity. The PDC lines were cultured according to standard operating procedures established by the NCI PDMR. All PDCs were thawed and cultured in Matrigel-coated flasks prepared with a working solution of 1X Ham's F-12 nutrient mix, without supplementation (Invitrogen, Waltham, MA, cat. 11765054), 100 U/mL penicillin-streptomycin (Invitrogen, cat. 15140122), and 2.5% Matrigel (Corning Inc., Corning, NY, cat. 354248) for the first three passages. The 362531-283-R-J2-PDC and 782815-120-R-J1-PDC lines were cultured in 6C/Colon 1B media, which includes advanced DMEM/F-12 (Thermo Fisher Scientific, cat. 12634028), 10 mM HEPES (Thermo Fisher Scientific, cat. 15630080), 1X GlutaMAX supplement (Thermo Fisher Scientific, cat. 35050061), 0.1 mg/mL primocin (InvivoGen, San Diego, CA, cat. ant-pm-2), 10% defined fetal bovine serum, heat inactivated (HyClone Laboratories Inc., Logan, UT, cat. SH30070.03HI), 50% L-WRN conditioned media (ATCC, cat. CRL-3276), 1.25 mM N-Acetyl-L-cysteine (Sigma-Aldrich, cat. A9165), 10 mM nicotinamide (Sigma-Aldrich, cat. N0636), 1X B-27 supplement (Thermo Fisher Scientific, cat. 17504044), 1X N-2 supplement (Thermo Fisher Scientific, cat. 17502048), 50 ng/mL human EGF (Thermo Fisher Scientific, cat. PHG0311), and 10 microM Y-27632 dihydrochloride (Tocris Bioscience, cat. 1254). The K12877-001-R-J1-PDC line was cultured in 6I media, which includes all 6C/Colon 1B media plus 10 ng/mL human FGF-10 (PeproTech, cat. 100-26), 1 ng/mL human FGF-2 (PeproTech, cat. 100-18B), 1 µM prostaglandin E2 (Tocris Bioscience, cat. 2296), […] hydrocortisone (Sigma-Aldrich, cat. H4001), and […] bovine insulin (Sigma-Aldrich, cat. I6634). The K86415-001-R-J1-PDC line was cultured in 6D media, which includes all 6C/Colon 1B media components minus the L-WRN conditioned media. The 485176-168-R4-J1-PDC was cultured in PANC media, which includes all 6C/Colon 1B media plus 100 ng/mL human FGF-10 (PeproTech, cat. 100-26), 500 nM SB-431542 (Selleckchem, cat. S1067), and 10 nM gastrin (Tocris Bioscience, cat. 3006). […]

[1] = second compound 0.000949 µM, first compound 0.00316 µM
[2] = second compound 0.000949 µM, first compound 0.01 µM
[3] = second compound 0.000949 µM, first compound 0.0316 µM
[4] = second compound 0.000949 µM, first compound 0.1 µM
[5] = second compound 0.000949 µM, first compound 0.316 µM
[6] = second compound 0.000949 µM, first compound 1 µM
[7] = second compound 0.003 µM, first compound 0.00316 µM
[8] = second compound 0.003 µM, first compound 0.01 µM
[9] = second compound 0.003 µM, first compound 0.0316 µM
[10] = second compound 0.003 µM, first compound 0.1 µM
[11] = second compound 0.003 µM, first compound 0.316 µM
[12] = second compound 0.003 µM, first compound 1 µM
[13] = second compound 0.00949 µM, first compound 0.00316 µM
[14] = second compound 0.00949 µM, first compound 0.01 µM
[15] = second compound 0.00949 µM, first compound 0.0316 µM
[16] = second compound 0.00949 µM, first compound 0.1 µM
[17] = second compound 0.00949 µM, first compound 0.316 µM
[18] = second compound 0.00949 µM, first compound 1 µM
[19] = second compound 0.03 µM, first compound 0.00316 µM
[20] = second compound 0.03 µM, first compound 0.01 µM
[21] = second compound 0.03 µM, first compound 0.0316 µM
[22] = second compound 0.03 µM, first compound 0.1 µM
[23] = second compound 0.03 µM, first compound 0.316 µM
[24] = second compound 0.03 µM, first compound 1 µM
[25] = second compound 0.0949 µM, first compound 0.00316 µM
[26] = second compound 0.0949 µM, first compound 0.01 µM
[27] = second compound 0.0949 µM, first compound 0.0316 µM
[28] = second compound 0.0949 µM, first compound 0.1 µM
[29] = second compound 0.0949 µM, first compound 0.316 µM
[30] = second compound 0.0949 µM, first compound 1 µM
[31] = second compound 0.3 µM, first compound 0.00316 µM
[32] = second compound 0.3 µM, first compound 0.01 µM
[33] = second compound 0.3 µM, first compound 0.0316 µM
[34] = second compound 0.3 µM, first compound 0.1 µM
[35] = second compound 0.3 µM, first compound 0.316 µM
[36] = second compound 0.3 µM, first compound 1 µM
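Note: spheroids exposed to compounds for seven days before readout.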
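Throughout, for viability, T/C: 100% = DMSO vehicle control viability.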

For C=CC(=O)Nc1cc(Nc2nccc(-c3cn(C)c4ccccc34)n2)c(OC)cc1N(C)CCN(C)C + CCn1c(-c2cc(N3CCN(C)CC3)cnc2C(C)OC)c2c3cc(ccc31)-c1csc(n1)CC(NC(=O)C1CC1C)C(=O)N1CCCC(N1)C(=O)OCC(C)(C)C2, the IC50 (second compound 0.000949 µM) was 0.185 µM, the IC50 (second compound 0.003 µM) was 0.011 µM and the IC50 (second compound 0.00949 µM) was less than 0.00316 µM. The IC50 (second compound 0.03 µM) was less than 0.00316 µM, the IC50 (second compound 0.0949 µM) was less than 0.00316 µM and the IC50 (second compound 0.3 µM) was less than 0.00316 µM. The viability, T/C [1] was 63.2%, the viability, T/C [2] was 62.6% and the viability, T/C [3] was 59.9%. It also gave a viability, T/C [4] of 56.4%, a viability, T/C [5] of 44.6% and a viability, T/C [6] of 34.3%. The viability, T/C [7] was 58.9%, the viability, T/C [8] was 44.3% and the viability, T/C [9] was 49.2%. For the same molecule, the viability, T/C [10] was 38.8%, the viability, T/C [11] was 36.1% and the viability, T/C [12] was 28.2%. It also gave a viability, T/C [13] of 43.2%, a viability, T/C [14] of 38.3% and a viability, T/C [15] of 34.9%. For the same molecule, the viability, T/C [16] was 30.9%, the viability, T/C [17] was 24.7% and the viability, T/C [18] was 20.4%. The viability, T/C [19] was 30.4%, the viability, T/C [20] was 30.1% and the viability, T/C [21] was 29.6%. It also gave a viability, T/C [22] of 25.1%, a viability, T/C [23] of 19% and a viability, T/C [24] of 15.5%. For the same molecule, the viability, T/C [25] was 28.3%, the viability, T/C [26] was 24.6% and the viability, T/C [27] was 21.4%. It also gave a viability, T/C [28] of 18.2%, a viability, T/C [29] of 16.4% and a viability, T/C [30] of 14.7%. For the same molecule, the viability, T/C [31] was 23.4%, the viability, T/C [32] was 21.2% and the viability, T/C [33] was 18.8%. It also gave a viability, T/C [34] of 16.3%, a viability, T/C [35] of 15.5% and a viability, T/C [36] of 11.6%.
C=CC(=O)N1CCN(c2nc(OCC3CCCN3C)nc3c(F)c(-c4nc(N)cc(C)c4C(F)(F)F)c(Cl)cc23)C(C)C1 (stereo unspecified) + CCn1c(-c2cccnc2C(C)OC)c2c3cc(ccc31)N1CCOC(CC(NC(=O)C(C(C)C)N(C)C(=O)C3(F)CCN(C(=O)C#CC(C)(C)N(C)C)CC3)C(=O)N3CCCC(N3)C(=O)OCC(C)(C)C2)C1 gave an IC50 (second compound 0.000949 µM) greater than 1 µM, an IC50 (second compound 0.003 µM) greater than 1 µM and an IC50 (second compound 0.00949 µM) greater than 1 µM. For the same molecule, the IC50 (second compound 0.03 µM) was greater than 1 µM, the IC50 (second compound 0.0949 µM) was greater than 1 µM and the IC50 (second compound 0.3 µM) was greater than 1 µM. For the same molecule, the viability, T/C [1] was 99.3%, the viability, T/C [2] was 98.6% and the viability, T/C [3] was 108%. The viability, T/C [4] was 111%, the viability, T/C [5] was 97% and the viability, T/C [6] was 102%. The viability, T/C [7] was 103%, the viability, T/C [8] was 109% and the viability, T/C [9] was 105%. The viability, T/C [10] was 93.6%, the viability, T/C [11] was 96.9% and the viability, T/C [12] was 103%. For the same molecule, the viability, T/C [13] was 106%, the viability, T/C [14] was 112% and the viability, T/C [15] was 104%. It also gave a viability, T/C [16] of 107%, a viability, T/C [17] of 96.8% and a viability, T/C [18] of 100%. It also gave a viability, T/C [19] of 99.3%, a viability, T/C [20] of 97.7% and a viability, T/C [21] of 111%. The viability, T/C [22] was 98.7%, the viability, T/C [23] was 98.6% and the viability, T/C [24] was 104%. The viability, T/C [25] was 97.1%, the viability, T/C [26] was 109% and the viability, T/C [27] was 109%. The viability, T/C [28] was 94.8%, the viability, T/C [29] was 100% and the viability, T/C [30] was 94.5%. The viability, T/C [31] was 93.7%, the viability, T/C [32] was 79% and the viability, T/C [33] was 96.7%. For the same molecule, the viability, T/C [34] was 95.4%, the viability, T/C [35] was 90.3% and the viability, T/C [36] was 85.3%.
C=CC(=O)N1CCN(c2nc(OCC3CCCN3C)nc3c(F)c(-c4nc(N)cc(C)c4C(F)(F)F)c(Cl)cc23)C(C)C1 (stereo unspecified) + CCn1c(-c2cc(N3CCN(C)CC3)cnc2C(C)OC)c2c3cc(ccc31)-c1csc(n1)CC(NC(=O)C1CC1C)C(=O)N1CCCC(N1)C(=O)OCC(C)(C)C2 was tested, and the IC50 (second compound 0.000949 µM) was greater than 1 µM, the IC50 (second compound 0.003 µM) was 0.00629 µM and the IC50 (second compound 0.00949 µM) was less than 0.00316 µM. It also gave an IC50 (second compound 0.03 µM) of less than 0.00316 µM, an IC50 (second compound 0.0949 µM) of less than 0.00316 µM and an IC50 (second compound 0.3 µM) of less than 0.00316 µM. It also gave a viability, T/C [1] of 63.5%, a viability, T/C [2] of 59.2% and a viability, T/C [3] of 61.2%. The viability, T/C [4] was 63.1%, the viability, T/C [5] was 62.5% and the viability, T/C [6] was 57.9%. For the same molecule, the viability, T/C [7] was 50.9%, the viability, T/C [8] was 43.8% and the viability, T/C [9] was 53.3%. For the same molecule, the viability, T/C [10] was 51.4%, the viability, T/C [11] was 50.5% and the viability, T/C [12] was 43.5%. The viability, T/C [13] was 40.5%, the viability, T/C [14] was 39.7% and the viability, T/C [15] was 34%. It also gave a viability, T/C [16] of 41.8%, a viability, T/C [17] of 39.9% and a viability, T/C [18] of 34.1%. It also gave a viability, T/C [19] of 29%, a viability, T/C [20] of 32.3% and a viability, T/C [21] of 29.9%. For the same molecule, the viability, T/C [22] was 31.7%, the viability, T/C [23] was 34.5% and the viability, T/C [24] was 29.4%. It also gave a viability, T/C [25] of 23.1%, a viability, T/C [26] of 27.1% and a viability, T/C [27] of 25.5%. It also gave a viability, T/C [28] of 27.5%, a viability, T/C [29] of 29.2% and a viability, T/C [30] of 24.3%. It also gave a viability, T/C [31] of 22.6%, a viability, T/C [32] of 22.1% and a viability, T/C [33] of 23.2%. It also gave a viability, T/C [34] of 22.1%, a viability, T/C [35] of 25.6% and a viability, T/C [36] of 22.6%.
